The values below come from US20250340574A1, “MODULATORS OF CYSTIC FIBROSIS TRANSMEMBRANE CONDUCTANCE REGULATOR” (Vertex Pharmaceuticals Incorporated, priority 2022, published 2025).

T1 sequence (P13569 with tags, fused parts or gaps DEL508-508): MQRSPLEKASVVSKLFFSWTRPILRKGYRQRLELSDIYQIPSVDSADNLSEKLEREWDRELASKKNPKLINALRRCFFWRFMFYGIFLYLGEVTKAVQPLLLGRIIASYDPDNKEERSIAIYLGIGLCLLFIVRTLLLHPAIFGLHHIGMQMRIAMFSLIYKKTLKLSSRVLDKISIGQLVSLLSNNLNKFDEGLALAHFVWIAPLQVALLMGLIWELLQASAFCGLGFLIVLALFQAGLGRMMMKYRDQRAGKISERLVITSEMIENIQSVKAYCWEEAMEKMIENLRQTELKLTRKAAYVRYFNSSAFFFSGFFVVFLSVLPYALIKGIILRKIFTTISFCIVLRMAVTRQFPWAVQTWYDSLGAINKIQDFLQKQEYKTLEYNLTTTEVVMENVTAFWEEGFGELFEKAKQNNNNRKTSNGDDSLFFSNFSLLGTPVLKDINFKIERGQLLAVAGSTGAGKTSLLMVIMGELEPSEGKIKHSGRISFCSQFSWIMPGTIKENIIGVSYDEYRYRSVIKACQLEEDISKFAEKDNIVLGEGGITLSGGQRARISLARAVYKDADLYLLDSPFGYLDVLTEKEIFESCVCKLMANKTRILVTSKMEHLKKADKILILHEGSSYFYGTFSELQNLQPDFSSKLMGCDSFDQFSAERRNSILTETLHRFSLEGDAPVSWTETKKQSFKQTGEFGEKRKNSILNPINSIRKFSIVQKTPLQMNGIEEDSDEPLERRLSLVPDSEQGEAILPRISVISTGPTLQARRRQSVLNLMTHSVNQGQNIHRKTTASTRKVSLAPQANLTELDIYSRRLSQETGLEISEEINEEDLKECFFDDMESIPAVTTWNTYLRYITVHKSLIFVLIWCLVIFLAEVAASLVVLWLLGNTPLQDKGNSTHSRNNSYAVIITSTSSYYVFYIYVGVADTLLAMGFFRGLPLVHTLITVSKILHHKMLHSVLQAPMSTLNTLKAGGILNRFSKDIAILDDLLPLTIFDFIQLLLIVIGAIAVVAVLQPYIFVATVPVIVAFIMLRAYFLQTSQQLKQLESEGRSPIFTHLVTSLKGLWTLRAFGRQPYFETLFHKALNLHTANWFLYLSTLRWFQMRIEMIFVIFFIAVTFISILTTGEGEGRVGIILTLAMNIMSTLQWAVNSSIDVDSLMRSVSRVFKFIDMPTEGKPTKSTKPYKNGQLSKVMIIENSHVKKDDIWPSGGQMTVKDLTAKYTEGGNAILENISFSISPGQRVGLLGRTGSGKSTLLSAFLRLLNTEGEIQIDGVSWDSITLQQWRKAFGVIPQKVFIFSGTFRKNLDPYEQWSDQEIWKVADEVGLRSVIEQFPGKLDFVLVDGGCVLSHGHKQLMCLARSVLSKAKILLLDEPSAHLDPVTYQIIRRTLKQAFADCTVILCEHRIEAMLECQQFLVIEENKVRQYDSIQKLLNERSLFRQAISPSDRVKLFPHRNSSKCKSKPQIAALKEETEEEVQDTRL

The first assay has as its target T1, CFTR (F508del/MF-HBE cells) (Homo sapiens, UniProt P13569, DEL508-508).
T1 construct: human bronchial epithelial (HBE) cells derived from CF subjects heterozygous for F508del and a minimal function CFTR mutation (F508del/MF-HBE); endogenous in cells; host or cells: Primary human bronchial epithelial cells from CF subjects (F508del/MF genotype), differentiated at an air-liquid interface
Nature of the assay: Ussing chamber assay of CFTR-mediated short-circuit currents, Assay D (single concentration of 1 μM). As to conditions: with 44 nM potentiator and 18 μM Tezacaftor, 18-24 hours, 20% human serum. It counts as cell-based. The protocol: Ussing chamber experiments were performed using human bronchial epithelial (HBE) cells derived from CF subjects heterozygous for F508del and a minimal function CFTR mutation (F508del/MF-HBE) and cultured as previously described (Neuberger T, Burton B, Clark H, Van Goor F Methods Mol Biol 2011:741:39-54). After four days the apical media was removed, and the cells were grown at an air liquid interface for >14 days prior to use.
To isolate the CFTR-mediated short-circuit (ISC) current, F508del/MF-HBE grown on Costar® Snapwell™ cell culture inserts were mounted in an Ussing chamber and the transepithelial ISC was measured under voltage-clamp recording conditions (Vhold=0 mV) at 37° C. The basolateral solution contained (in mM) 145 NaCl, 0.83 K2HPO4, 3.3 KH2PO4, 1.2 MgCl2, 1.2 CaCl2, 10 Glucose, 10 HEPES (pH adjusted to 7.4 with NaOH) and the apical solution contained (in mM) 145 NaGluconate, 1.2 MgCl2, 1.2 CaCl2, 10 glucose, 10 HEPES (pH adjusted to 7.4 with NaOH) and 30 μM amiloride to block the epithelial sodium channel. Forskolin (20 μM) was added to the apical surface to activate CFTR, followed by apical addition of a CFTR inhibitor cocktail consisting of BPO, GlyH-101, and CFTR inhibitor 172 (each at 20 μM final assay concentration) to specifically isolate CFTR currents. The CFTR-mediated ISC (μA/cm^2) for each condition was determined from the peak forskolin response to the steady-state current following inhibition.
The activity of the CFTR corrector compounds on the CFTR-mediated ISC was determined in Ussing chamber studies as described above. The F508del/MF-HBE cell cultures were either incubated with the corrector compounds at a range of concentrations in combination with 33 nM (6R,12R)-17-amino-12-methyl-6,15-bis(trifluoromethyl)-13,19-dioxa-3,4,18-triazatricyclo[12.3.1.12,5]nonadeca-1(18),2,4,14,16-pentaen-6-ol and 18 μM Tezacaftor or were incubated with the corrector compounds at a single fixed concentration of 1 μM in combination with 44 nM (6R,12R)-17-amino-12-methyl-6,15-bis(trifluoromethyl)-13,19-dioxa-3,4,18-triazatricyclo[12.3.1.12,5]nonadeca-1(18),2,4,14,16-pentaen-6-ol and 18 μM Tezacaftor for 18-24 hours at 37° C. and in the presence of 20% human serum. The concentration of corrector compounds with 44 nM or 33 nM (6R,12R)-17-amino-12-methyl-6,15-bis(trifluoromethyl)-13,19-dioxa-3,4,18-triazatricyclo[12.3.1.12,5]nonadeca-1(18),2,4,14,16-pentaen-6-ol and 18 μM Tezacaftor during the 18-24 hours incubations was kept constant throughout the Ussing chamber measurement of the CFTR-mediated ISC to ensure compounds were present throughout the entire experiment. The efficacy and potency of the putative F508del correctors was compared to that of the known Vertex corrector, (14S)-8-[3-(2-{Dispiro[2.0.2.1]heptan-7-yl}ethoxy)-1H-pyrazol-1-yl]-12,12-dimethyl-2λ^6-thia-3,9,11,18,23-pentaazatetracyclo[17.3.1.111,14.05,10]tetracosa-1(22),5,7,9,19(23),20-hexaene-2,2,4-trione, in combination with 18 μM Tezacaftor and 1 μM Ivacaftor.
• Assay A: 0.1 μM to 25 μM, 6 concentrations • Assay B: 0.00001 μM to 25 μM, 12 concentrations • Assay C: 0.026 μM to 25 μM, 6 concentrations • Assay D: Activity at single concentration of 1 μM
`COCCn1c(C(C)C)cc2ncc(CN3C(=O)c4cccc(c4)S(=O)(=O)Nc4nc(cc(-c5c(C)cccc5C)n4)OC[C@H]3CC(C)(C)C)nc21` [Compound I-117, (11R)-6-(2,6-dimethylphenyl)-11-(2,2-dimethylpropyl)-12-[[6-isopropyl-5-(2-methoxyethyl)pyrrolo[2,3-b]pyrazin-3-yl]methyl]-2,2-dioxo-9-oxa-2λ^6-thia-3,5,12,19-tetrazatricyclo[12.3.1.14,8]nonadeca-1(18),4(19),5,7,14,16-hexaen-13-one]: the “D activity at 1 μM (%)” value is recorded as “+++ (+++ is >60%)”.
Still for that read-out and setting: then `Cc1cccc(C)c1-c1nc2nc(c1C)OC[C@@H](CC1(C)CC1)N(Cc1cnc3oc(C4(C)CC4)cc3n1)C(=O)c1cccc(c1)S(=O)(=O)N2` [Compound I-232], with “+++ (+++ is >60%)”; and `Cc1cccc(C)c1-c1cc2nc(n1)NS(=O)(=O)c1cccc(c1)C(=O)N(Cc1ncc3oc(C(C)(C)C)cc3n1)[C@H](CC(C)(C)C)CO2` [Compound I-250], with “+++ (+++ is >60%)”; and `Cc1cccc(C)c1-c1cc2nc(n1)NS(=O)(=O)c1cccc(c1)C(=O)N(Cc1cnc3oc(C(C)C)c(C)c3n1)[C@H](COC1CCCC1)CO2` [Compound I-119], with “+++ (+++ is >60%)”.
The same measure, in the same setting: then `Cc1cccc(C)c1-c1cc2nc(n1)NS(=O)(=O)c1cccc(c1)C(=O)N(Cc1cnc3oc(C4(C)CC4)cc3n1)[C@H](COC(C)C)CO2` [Compound I-186], with “+++ (+++ is >60%)”; and `Cc1cccc(C)c1-c1cc2nc(n1)NS(=O)(=O)c1cccc(c1)C(=O)N(Cc1cnc3oc(C4CC4)cc3n1)[C@H](CC(C)C)CO2` [Compound I-156], with “+++ (+++ is >60%)”.
Same read-out and setting: then `Cc1cccc(C)c1-c1nc2nc(c1C)OC[C@@H](CC(C)(C)C)N(Cc1nc3cc(C4(C)CC4)oc3cc1F)C(=O)c1cccc(c1)S(=O)(=O)N2` [Compound I-236], with “+++ (+++ is >60%)”.
Turning to `Cc1cccc(C)c1-c1cc2nc(n1)NS(=O)(=O)c1cccc(c1)C(=O)N(Cc1cn3cccc(O)c3n1)[C@H](CC(C)(C)C)CO2` [III-15], the “D activity at 1 μM (%)” value is “+++ (+++ is >60%)”.
Turning to `Cc1cccc(CCC(C)C)c1-c1nc2nc(c1C)OC[C@@H](CC(C)(C)C)N(Cc1cnc3oc(C4CC4)cc3n1)C(=O)c1cccc(c1)S(=O)(=O)N2` (atropisomer, axis not shown) [Compound I-205], the “D activity at 1 μM (%)” value is recorded as “+++ (+++ is >60%)”.
Same read-out and setting: then `Cc1cccc(C)c1-c1cc2nc(n1)NS(=O)(=O)c1cccc(c1)C(=O)N(Cc1cnc3cc(C(C)C)n(C)c3n1)[C@H](COC1CCCC1)CO2` [Compound I-121, (11R)-11-(Cyclopentoxymethyl)-6-(2,6-dimethylphenyl)-12-[(6-isopropyl-5-methyl-pyrrolo[2,3-b]pyrazin-3-yl)methyl]-2,2-dioxo-9-oxa-2λ^6-thia-3,5,12,19-tetrazatricyclo[12.3.1.14,8]nonadeca-1(18),4(19),5,7,14,16-hexaen-13-one], with “+++ (+++ is >60%)”; and `Cc1cccc(C)c1-c1cc2nc(n1)NS(=O)(=O)c1cccc(c1)C(=O)N(Cc1cnc3nc(C(C)C)n(C)c3n1)[C@H](CC(C)(C)C)CO2` [Compound I-73], with “+++ (+++ is >60%)”; and `Cc1cccc(C)c1-c1cc2nc(n1)NS(=O)(=O)c1cccc(c1)C(=O)N(Cc1cnc3oc(C(C)C)cc3n1)[C@H](CC1CCCO1)CO2` (single isomer, unassigned) [Compound I-22], with “+++ (+++ is >60%)”.
Same read-out and setting: then `Cc1cccc(C)c1-c1cc2nc(n1)NS(=O)(=O)c1cccc(c1)C(=O)N(Cc1cnc3cc(C(C)C)n(C)c3n1)[C@H](CC1CCOCC1)CO2` [Compound I-29], with “++ (++ is 30-60%)”; and `Cc1cccc(C)c1-c1cc2nc(n1)NS(=O)(=O)c1cccc(c1)C(=O)N(Cc1ncc3oc(C(C)(C)C)cc3n1)[C@H](CC1(C)CC1)CO2` [Compound I-252], with “+++ (+++ is >60%)”.
On the same count and under the same terms, next, `Cc1cccc(C)c1-c1cc2nc(n1)NS(=O)(=O)c1cccc(c1)C(=O)N(Cc1cnc3oc(C(C)C)c(C(F)(F)F)c3n1)[C@H](CCC1(C)CC1)CO2` (stereo in doubt) [Compound I-127]: “+++ (+++ is >60%)”; `Cc1cccc(C)c1-c1cc2nc(n1)NS(=O)(=O)c1cccc(c1)C(=O)N(Cc1cnc3oc(C4CC4)cc3n1)[C@H](C[C@@H]1CCCO1)CO2` (stereo in doubt) [Compound I-45]: “+++ (+++ is >60%)”; `Cc1cccc(C)c1-c1cc2nc(n1)NS(=O)(=O)c1cccc(c1F)C(=O)N(Cc1cnc3cc(C(C)C)n(CCO)c3n1)[C@H](CC1(C)CC1)CO2` [Compound I-215]: “+++ (+++ is >60%)”.
Consider `Cc1cccc(C)c1-c1cc2nc(n1)NS(=O)(=O)c1cccc(c1)C(=O)N(Cc1cnc3c(n1)CN(C(C)C)C3=O)[C@@H](CCC1(C)CC1)CO2` (stereo in doubt) [III-19], for which the “D activity at 1 μM (%)” value is “+++ (+++ is >60%)”.
On the same count and under the same terms, then `Cc1cccc(C)c1-c1nc2nc(c1C)OC[C@@H](CCC(C)(C)C)N(Cc1cnc3cc(C4CC4)n(C)c3n1)C(=O)c1cccc(c1)S(=O)(=O)N2` [Compound I-183], with “+++ (+++ is >60%)”.
Same read-out and setting: next, `Cc1cccc(C)c1-c1cc2nc(n1)NS(=N)(=O)c1cccc(c1)C(=O)N(Cc1cnc3oc(C4CC4)cc3n1)[C@H](CC(C)(C)C)CO2` (stereo partly drawn) [Compound I-148, (11R)-12-[(6-cyclopropylfuro[2,3-b]pyrazin-2-yl)methyl]-6-(2,6-dimethylphenyl)-11-(2,2-dimethylpropyl)-2-imino-2-oxo-9-oxa-2λ^6-thia-3,5,12,19-tetrazatricyclo[12.3.1.14,8]nonadeca-1(18),4(19),5,7,14,16-hexaen-13-one]: “+++ (+++ is >60%)”; `Cc1cccc(CC(C)C)c1-c1nc2nc(c1C)OC[C@@H](CC13CC(C1)C3)N(Cc1cnc3oc(C(C)(C)C)cc3n1)C(=O)c1cccc(c1)S(=O)(=O)N2` [Compound I-248]: “+++ (+++ is >60%)”; `Cc1cccc(C)c1-c1cc2nc(n1)NS(=O)(=O)c1cccc(c1)C(=O)N(Cc1cnc3oc(C(C)C)cc3n1)[C@H](COC1CCCC1)CO2` [Compound I-120]: “+++ (+++ is >60%)”.

The same assay, now with this note: with 44 nM potentiator and 18 μM Tezacaftor, 20% human serum.
Regarding `Cc1cccc(C)c1-c1cc2nc(n1)NS(=O)(=O)c1cccc(c1)C(=O)N(Cc1cnc3sc(C4CC4)cc3n1)[C@H](CC1(C)CC1)CO2` [IV-41], the “D act. at 1 μM (%)” value is given as “+++ (+++ is >60%)”.
Turning to `COC(C)(C)CC(C)(O)c1cc2nc(CN3C(=O)c4cccc(c4)S(=O)(=O)Nc4nc(cc(-c5c(C)cccc5C)n4)OC[C@H]3CC3(C)CC3)cnc2o1` (stereo partly drawn) [IV-13, (11R)-6-(2,6-dimethylphenyl)-12-[[6-(1-hydroxy-3-methoxy-1,3-dimethyl-butyl)furo[2,3-b]pyrazin-2-yl]methyl]-11-[(1-methylcyclopropyl)methyl]-2,2-dioxo-9-oxa-2λ^6-thia-3,5,12,19-tetrazatricyclo[12.3.1.14,8]nonadeca-1(18),4(19),5,7,14,16-hexaen-13-one], the “D act. at 1 μM (%)” value is “+++ (+++ is >60%)”.
With `Cc1cccc(C)c1-c1cc2nc(n1)NS(=O)(=O)c1cccc(c1)C(=O)N(Cc1cnc3oc(C#N)cc3n1)[C@H](CC1(C)CC1)CO2` [IV-28], the “D act. at 1 μM (%)” value was “+++ (+++ is >60%)”.
The same measure, in the same setting: then `Cc1cccc(C)c1-c1cc2nc(n1)NS(=O)(=O)c1cccc(c1)C(=O)N(Cc1ncc3cc(C4CC4)n(C)c3n1)[C@H](COC(C)C)CO2` [IV-29], with “+++ (+++ is >60%)”.
